Our source for the IC50 values is US20240140931A1, “TRICYCLIC COMPOUNDS AND USES THEREOF” (HUTCHMED LIMITED, priority 2021, published 2024).

Assay [1] addresses Human full-length SHP2 recombinant protein (Homo sapiens (Human), UniProt Q06124). Description: Assay of full-length SHP2 phosphatase activity. The note with it: DiFMUP substrate, with activating peptide. Type of assay: biochemical. The procedure:
Example 2 Assay of Full-Length SHP2 Phosphatase Activity
1. Reagents and Materials • Human full-length SHP2 recombinant protein: BPS Bioscience, Cat #79018; • SHP2 substrate DiFMUP (1 mM): BPS Bioscience, Cat #79769; • SHP2 activating peptide (100 μM): BPS Bioscience, Cat #79319-2; • DTT: Merck, Cat #DTT-RO; • 384-well plate: Corning, Cat #3575; • 96-well plate: Thermo Fisher Scientific, Cat #249952; • Instrument: EnVision 2104, PerkinElmer.
2. Preparation of Reaction Solutions
The test compound was dissolved in DMSO and diluted with DMSO to 100.0 μM, and the compound was further 3-fold diluted with DMSO to: 100.00, 33.33, 11.11, 3.70, 1.23, 0.41, 0.14 and 0.05 μM.
3. Experimental Steps • To the corresponding wells of the 384-well plate was added 2.5 μL of 4× test compound or 2.5 μL of 4% DMSO solution, and centrifugation was carried out at 1000 rpm for 30 seconds. • To the test compound well and positive control well was added 2.5 μL of 4× mixed solution of SHP2 enzyme/activating peptide while to the negative control well was added 2.5 μL of 1× enzymatic reaction buffer; centrifugation was carried out at 1000 rpm for 30 seconds and incubation was carried out at room temperature for 30 minutes. • To each well was added 5 μL of 2×DiFMUP substrate to initiate the enzymatic reaction, then the plate was transiently oscillated and centrifuged at 1000 rpm for 30 seconds, and the 384-well plate was sealed with a sealing membrane and incubated at 25° C. on a low-speed shaker (100 rpm) in the dark for 60 minutes. • The fluorescence value (relative fluorescence units, RFU) of each well was detected on EnVision2104 (excitation: 355 nm, emission: 460 nm).
wherein • the RFU of compound well refers to the fluorescence reading at 460 nm of the well containing the test compounds; • the RFU of negative control well refers to the fluorescence reading at 460 nm of the background well containing 1% DMSO and the enzymatic reaction buffer; • the RFU of positive control well refers to the fluorescence reading at 460 nm of the well containing 1% DMSO and the mixed solution of SHP2 enzyme/activating peptide.
(§1) IC50 values were calculated following formula 205: y=A+((B−A)/(1+((C/X)^D))), by using the XL-Fit 5.0 software.

Assay [2] relates to pERK1/2 (Thr202/Tyr204) in Miapaca2 cells. Put plainly: Assay of intracellular pERK1/2 (Thr202/Tyr204) phosphorylation. Type of assay: cell-based. The procedure: Example 3 Assay of Intracellular pERK1/2 (Thr202/Tyr204) Phosphorylation
1. Reagents and Materials • pERK1/2 (Thr202/Tyr204) HTRF kit: Cisbio, Cat #64ERKPEH; • Cell line: Miapaca2, ATCC, CRL-1420; • OptiPlate™-384-well plate: PerkinElmer, Cat #6007299; • 96-well plate: Corning, Cat #353072; • Instrument: EnVision2104, PerkinElmer.
2. Preparation of Reaction Solutions • The test compound was dissolved in DMSO and diluted with DMSO to 600.0 μM, and the compound was further 3-fold diluted with DMSO to: 600.0, 200.0, 66.7, 22.2, 7.4, 2.5, 0.82 and 0.27 μM. Then 10 μL of the compound at different dilution concentrations was added to 190 μL of a DMEM medium to prepare a 10× test compound, wherein DMSO was at the concentration of 5% (DMSO was at the final concentration of 0.5%). • 1× cell lysis buffer: 4× cell lysis stock solution (provided by the kit) was diluted 4-fold with deionized water, and then 1% 100× blocking stock solution (provided by the kit) was added thereto. • pERK1/2 detection solution (prepared just before use): the pERK1/2 d2 antibody (provided by the kit) and pERK1/2 Cryptate antibody (provided by the kit) were diluted with the detection solution (provided by the kit) at a ratio of 1:1:38.
3. Experimental Steps • Miapaca2 cells were inoculated into a 96-well plate at a density of 10000 cells/well at 90 μL/well and cultured in a cell incubator at 5% CO2 and 37° C. overnight. • 10 μL of 10× test compound was added to the 90 μL cell culture 96-well plate; to the cell positive control well was added 10 μL of 5% DMSO culture solution; and the plate was cultured in a cell incubator at 5% CO2 and 37° C. for 2 hours. • The medium in the 96-well plate was removed; 50 μL of 1× cell lysis buffer was added to each well; the plate was placed in a microplate shaker; and lysis under shaking was carried out at 900 rpm at room temperature for 1 hour. • 16 μL of the lysis buffer in the 96-well plate was taken and transferred to a 384-well plate, and centrifugation was carried out at 1000 rpm for 30 seconds; then 4 μL of pERK1/2 detection solution was added to each well and centrifugation was carried out at 1000 rpm for 30 seconds; and the 384-well plate was sealed with a sealing membrane and incubated at 25° C. on a low-speed shaker (100 rpm) in the dark for 2 hours. • The fluorescence value (relative fluorescence units, RFU) of each well was detected on EnVision2104 (emission 1: 665 nm, emission 2: 615 nm).
wherein • the fluorescence ratio of compound well refers to the fluorescence ratio of the well containing the test compounds; • the fluorescence ratio of negative control well refers to the fluorescence ratio of the background containing the cell lysis buffer and no Miapaca2 cells; • the fluorescence ratio of positive control well refers to the fluorescence ratio of the well containing 0.5% DMSO and Miapaca2 cells.
as §1

Setting [3] is: Homo sapiens, MIA PaCa-2, 2 h, pERK1/2 (Thr202/Tyr204) HTRF.
The mark [4] stands for this setting: pERK1/2 (Thr202/Tyr204) HTRF, 2 hours.

Chain of Human full-length SHP2 recombinant protein (Q06124 whole entry): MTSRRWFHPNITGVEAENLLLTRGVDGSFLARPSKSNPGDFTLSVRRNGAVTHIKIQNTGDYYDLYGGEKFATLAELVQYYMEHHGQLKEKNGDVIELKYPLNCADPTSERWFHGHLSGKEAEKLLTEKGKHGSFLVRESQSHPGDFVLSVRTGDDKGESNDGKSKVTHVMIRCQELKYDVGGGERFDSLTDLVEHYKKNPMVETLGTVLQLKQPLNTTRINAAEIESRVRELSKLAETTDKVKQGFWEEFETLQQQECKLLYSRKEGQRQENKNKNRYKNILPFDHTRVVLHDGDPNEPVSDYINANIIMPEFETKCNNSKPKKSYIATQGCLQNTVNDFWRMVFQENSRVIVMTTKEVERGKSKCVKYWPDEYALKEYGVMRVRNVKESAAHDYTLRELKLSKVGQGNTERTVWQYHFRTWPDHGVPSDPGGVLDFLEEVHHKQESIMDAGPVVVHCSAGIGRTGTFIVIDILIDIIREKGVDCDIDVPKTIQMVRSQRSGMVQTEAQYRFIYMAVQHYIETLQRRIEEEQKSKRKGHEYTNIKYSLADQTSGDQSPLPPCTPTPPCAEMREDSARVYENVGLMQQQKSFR

As to `COCC#Cc1ccc2c(c1)[C@@H](N)C1(CCN(c3ncc(Sc4ccnc(N)n4)nc3CO)CC1)C2` [Compound 87, (S)-(3-(1-amino-6-(3-methoxyprop-1-yn-1-yl)-1,3-dihydrospiro[indene-2,4′-piperidin]-1′-yl)-6-((2-aminopyrimidin-4-yl)thio)pyrazin-2-yl)methanol], the IC50 in assay [1] was determined as 1 nM; in assay [2] (setting [3]), 2 nM. For the compound `C#Cc1ccc2c(c1)[C@@H](N)C1(CCN(c3cc(=O)n(-c4ccccc4C(F)(F)F)c(C)n3)CC1)C2` [Compound 107], the IC50 in assay [1] was 739 nM; in assay [2] (setting [3]), more than 1000 nM. The corresponding values for `C#Cc1ccc2c(c1)[C@@H](N)C1(CCN(c3cc(=O)n(-c4ccnc(Cl)c4)c(C)n3)CC1)C2` [Compound 60] are 13 nM and more than 1000 nM. In the case of `C#Cc1ccc2c(c1)OC1(CCN(c3cc(=O)n(-c4ccc(F)c(F)c4)c(C)n3)CC1)[C@@H]2N` [Compound 13], in assay [1], the IC50 was more than 1000 nM. Take `CNCC#Cc1ccc2c(c1)[C@@H](N)C1(CCN(c3ncc(Sc4ccnc(N)c4Cl)c4nccn34)CC1)C2` [Compound 91]: the IC50 in assay [1] was 0.7 nM; in assay [2] (setting [3]) it was 17 nM. Turning to `CC#Cc1ccc2c(c1)[C@@H](N)C1(CCN(c3cc(=O)n(-c4ccc(F)c(F)c4Cl)c(C)n3)CC1)C2` [Compound 214], the IC50 came to 4 nM in assay [1] and 100 nM in assay [2] (setting [4]). Regarding `COCC#Cc1ccc2c(c1)[C@@H](N)C1(CCN(c3ncc(Sc4ccnc(N)c4Cl)c4nccn34)CC1)C2` [Compound 40], the IC50 in assay [1] came to 2 nM; in assay [2] (setting [3]), 6 nM. In the case of `Cc1nc(N2CCC3(CC2)Cc2ccc(C#CCN(C)C)cc2[C@H]3N)n2ccnc2c1Sc1ccnc(N)c1Cl` [Compound 75], the IC50 in assay [1] came to 2 nM; in assay [2] (setting [3]), 46 nM. For the compound `COCC#Cc1ccc2c(c1)[C@@H](N)C1(CCN(c3ncc(-c4cn(C)c5ncccc45)c4nccn34)CC1)C2` [Compound 120], the IC50 was determined as 45 nM in assay [1] and 385 nM in assay [2] (setting [3]). With `C#Cc1ccc2c(c1)CC1(CCN(c3cc(=O)n(-c4cccc(Cl)c4)c(C)n3)CC1)[C@@H]2N` [Compound 26], the IC50 in assay [1] is 158 nM; in assay [2] (setting [3]), more than 3000 nM. Regarding `C#Cc1ccc2c(c1)[C@@H](N)C1(CCN(c3cc(=O)n(-c4cccc(OC)c4Cl)c(C)n3)CC1)C2` (atropisomer, axis not shown) [Compound 111], the IC50 was 2 nM in assay [1] and 15 nM in assay [2] (setting [4]).

Turning to `C#Cc1ccc2c(c1)[C@@H](N)C1(CCN(c3cc(=O)n(-c4ccc(F)cc4F)c(C)n3)CC1)C2` [Compound 41], the IC50 turned out to be 21 nM in assay [1] and 115 nM in assay [2] (setting [3]). With `C#Cc1ccc2c(c1)[C@@H](N)C1(CCN(c3cc(=O)n(-c4ccccc4Cl)c(C)n3)CC1)C2` (single isomer, unassigned) [Compound 56], the IC50 in assay [1] is 2 nM; in assay [2] (setting [4]) it was 85 nM. Turning to `C#Cc1ccc2c(c1)[C@@H](N)C1(CCN(c3cc(=O)n(-c4ccc(C#N)c(OC)c4Cl)c(C)n3)CC1)C2` (atropisomer, axis not shown) [Compound 190], the IC50 was determined as 253 nM in assay [1] and 672 nM in assay [2] (setting [4]). Consider `C#Cc1ccc2c(c1)CC1(CCN(c3cc(=O)n(-c4cccc(Cl)c4Cl)c(C)n3)CC1)[C@@H]2N` (atropisomer, axis not shown) [Compound 20], for which the IC50 in assay [1] was found to be 12 nM; in assay [2] (setting [3]), 52 nM. In the case of `C#Cc1ccc2c(c1)[C@@H](N)C1(CCN(c3cc(=O)n(-c4ccc(C#N)c(F)c4Cl)c(C)n3)CC1)C2` [Compound 198], the IC50 was 16 nM in assay [1] and 191 nM in assay [2] (setting [3]). Take `Cc1nc(N2CCC3(CC2)Cc2ccc(C#CCN(C)C)cc2[C@H]3N)cc(=O)n1-c1cccc(Cl)c1Cl` [Compound 52]: the IC50 in assay [2] (setting [3]) was 37 nM. For `C#Cc1ccc2c(c1)CC1(CCN(c3cc(=O)n(-c4cccc(Cl)c4Cl)c(C)n3)CC1)[C@@H]2N` (atropisomer, axis not shown) [Compound 24], the IC50 in assay [1] turned out to be 412 nM.

Consider `C#Cc1ccc2c(c1)CC1(CCN(c3cc(=O)n(-c4ccccc4)c(C)n3)CC1)[C@@H]2N` [Compound 23], for which, in assay [1], the IC50 worked out at 757 nM. As to `C#Cc1ccc2c(c1)OC1(CCN(c3cc(=O)n(-c4cccc(Cl)c4)c(C)n3)CC1)[C@@H]2N` [Compound 18], the half-maximal inhibitory concentration (IC50) in assay [1] was more than 1000 nM. Regarding `C#Cc1ccc2c(c1)[C@@H](N)C1(CCN(c3cc(=O)n(-c4c(Cl)cccc4Cl)c(C)n3)CC1)C2` [Compound 33], the IC50 in assay [1] worked out at 310 nM. `C#Cc1ccc2c(c1)[C@@H](N)C1(CCN(c3cc(=O)n(-c4cccc(C#N)c4Cl)c(C)n3)CC1)C2` [Compound 267] had an IC50 in assay [2] (setting [4]) of more than 1000 nM. Turning to `C#Cc1ccc2c(c1)CC1(CCN(c3cc(=O)n(-c4ccc(Cl)cc4)c(C)n3)CC1)[C@@H]2N` [Compound 22], the IC50 in assay [1] came to 348 nM. Still for that read-out and setting: the figure for `C#Cc1ccc2c(c1)OC1(CCN(c3cc(=O)n(-c4ccccc4)c(C)n3)CC1)[C@@H]2N` [Compound 19] is more than 1000 nM; for `C#Cc1ccc2c(c1)CC1(CCN(c3cc(=O)n(-c4ccc(F)c(F)c4)c(C)n3)CC1)[C@@H]2N` [Compound 21] it is 541 nM; for `C#Cc1ccc2c(c1)OC1(CCN(c3cc(=O)n(-c4cccc(Cl)c4Cl)c(C)n3)CC1)[C@@H]2N` (atropisomer, axis not shown) [Compound 28] it is more than 1000 nM. On to `C#Cc1ccc2c(c1)OC1(CCN(c3nc(C)n(-c4ccc(F)c(F)c4)c(=O)c3C)CC1)[C@@H]2N` [Compound 14], for which, in assay [1], the IC50 is more than 1000 nM. In assay [2] (Homo sapiens, MIA PaCa-2, pERK1/2 (Thr202/Tyr204) HTRF, 2 hours), `Cc1nc(N2CCC3(CC2)Cc2ccc(SC4COC4)cc2[C@H]3N)cc(=O)n1-c1cccc(Cl)c1Cl` [Compound 81, (S)-6-(1-amino-6-(oxetan-3-ylthio)-1,3-dihydrospiro[indene-2,4′-piperidin]-1′-yl)-3-(2,3-dichlorophenyl)-2-methylpyrimidin-4(3H)-one] registered an IC50 of 89 nM.

Consider `C#Cc1ccc2c(c1)[C@@H](N)C1(CCN(c3cc(=O)n(-c4ccc(F)c(F)c4Cl)c(C)n3)CC1)C2` [Compound 77], for which the IC50 in assay [2] (setting [4]) amounted to 56 nM. Turning to `COCC#Cc1ccc2c(c1)[C@@H](N)C1(CCN(c3cc(=O)n(-c4cccc(Cl)c4Cl)c(C(F)(F)F)n3)CC1)C2` [Compound 130], the IC50 in assay [1] was more than 1000 nM.

On to `C#Cc1ccc2c(c1)[C@@H](N)C1(CCN(c3cc(=O)n(-c4cc(OC)ccc4Cl)c(C)n3)CC1)C2` [Compound 58], for which the IC50 in assay [2] (setting [4]) turned out to be 260 nM.

One may read the IC50 as the midpoint of a concentration-inhibition curve.
